Data reported in publication PMC6402191 (Clinical and Translational Science, 2017).
Where “and” joins values, the source holds several entries; their conditions need not be identical. Identical values can stand only once. Like-named read-outs stand apart in the source and are kept apart here. Marks after values point to notes of the source that are not given here. One block for each compound: values may come before it.

Assays:
[1] = cited from earlier work; for fu (fraction unbound in plasma): ref 15 (probenecid), 16 (ibuprofen), 17, 18 (diclofenac)
MATE2-K = MATE2-K (Homo sapiens, UniProt Q86VL8); assay: Inhibition of the MATE2-K-mediated uptake of baricitinib; format: in vitro ADME; conditions: for IC50: IC50 MATE2-K (mean), substrate 0.25 μM baricitinib, 0.5 min; for DDI index ([Iu]/IC50), MATE2-K: baricitinib as substrate
[2] = cited from earlier work
[3] = Plasma concentrations used to calculate DDI indices and R values; format: in vivo, human; conditions: estimated from published Cmax and unbound fraction
[4] = Pharmacokinetic input parameters of the PBPK models; format: in vivo, human
[5] = Clinical baricitinib-probenecid DDI study in healthy subjects; format: in vivo, human
PBPK modeling = assay: PBPK modeling; parameters: species or system human
[6] = cited from earlier work; remark: listed apart in the source
OAT3 = conditions: read-out: IC50 OAT3, pemetrexed as substrate, cited from earlier work
[7] = cited from earlier work; remark: listed apart in the source
[8] = published mean (CV) or range, ref 45 (ibuprofen), 17 (diclofenac)

Chain of MATE2-K (Q86VL8 1-566 isoform Q86VL8-3): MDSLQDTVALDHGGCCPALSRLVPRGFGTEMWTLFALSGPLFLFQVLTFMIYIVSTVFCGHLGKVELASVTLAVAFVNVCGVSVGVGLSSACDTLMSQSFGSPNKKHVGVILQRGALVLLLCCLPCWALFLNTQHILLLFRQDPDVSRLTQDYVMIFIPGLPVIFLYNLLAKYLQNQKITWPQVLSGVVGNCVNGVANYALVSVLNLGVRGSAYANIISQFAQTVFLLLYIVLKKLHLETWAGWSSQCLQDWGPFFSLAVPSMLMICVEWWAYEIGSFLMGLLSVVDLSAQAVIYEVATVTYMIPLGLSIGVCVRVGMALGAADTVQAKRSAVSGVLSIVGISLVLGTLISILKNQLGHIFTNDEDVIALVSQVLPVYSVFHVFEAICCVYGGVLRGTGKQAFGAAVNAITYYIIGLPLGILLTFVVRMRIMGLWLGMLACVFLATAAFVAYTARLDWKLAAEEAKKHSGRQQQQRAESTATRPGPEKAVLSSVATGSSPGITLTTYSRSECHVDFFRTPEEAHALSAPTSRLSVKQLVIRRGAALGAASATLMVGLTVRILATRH

IC50 (MATE2-K): 5.1 µM | DDI index ([Iu]/IC50), MATE2-K (MATE2-K): 1.57 and 1.6 | Cmax unbound inhibitor [Iu] [3]: 7900 nM
Compound: CN/C(=N/CCSCc1nc[nH]c1C)NC#N [Cimetidine]
plasma bound [1]: f 400 mg oral dose, 20% plasma bound.31

Cmax unbound inhibitor [Iu] [3]: 30 nM | ka (first-order absorption rate constant) ([4]; calculated as 1/gastric emptying time): 6 h^‐1
Compound: O=C(O)Cc1ccccc1Nc1c(Cl)cccc1Cl [Diclofenac]
plasma bound [1]: d 100 mg oral dose, 99.7% bound to plasma.30 | fu (fraction unbound in plasma) [1]: 0.003 | Clearance (i.v.) ([2]; i.v., scaled by body weight to Simcyp population): Clearance = 20 ^a (i.v.) L/h | IC50 (OAT3): […] | IC50 (OAT3; listed as diclofenac): […] | AUC observed [6, 8]: 2.7 – 4.4 ^b μg·h/mL | Cmax observed [6, 8]: 1.2 – 3.6 ^b μg/mL

Cmax unbound inhibitor [Iu] [3]: 600 nM
Compound: CN(Cc1cnc2nc(N)nc(N)c2n1)c1ccc(C(=O)N[C@@H](CCC(=O)O)C(=O)O)cc1 [Methotrexate]
plasma bound [1]: e 15 mg s.c. dose, 46% plasma bound.30

Continued, compound first:

Compound: CCCN(CCC)S(=O)(=O)c1ccc(C(=O)O)cc1 [Probenecid]
plasma bound [1]: a 1 g oral dose, 91% plasma bound.29 | Inhibition of MATE2-K-mediated baricitinib transport (in words) (MATE2-K; probenecid 0–200 μM, cimetidine, pyrimethamine 0–100 μM): did not inhibit | Fa (fraction absorbed) ([2]; ref 20 (probenecid), 21 (ibuprofen), 17 (diclofenac)): 1 | Cmax unbound inhibitor [Iu] [3]: 22100 nM | CL/F ([4]; human, plasma, po, 2000 mg/day): 12.2 mL/min | tolerability ([5]; healthy subjects, all drug-related treatment-emergent AEs mild): well tolerated | Cmax ([5]; human, plasma, oral, 1000 mg): 145 µg/mL | Tmax ([5]; human, plasma, oral, 1000 mg b.i.d.): 2 h | Css,ave observed ([5]; probenecid 1,000 mg BID): 115 µg/mL | trough plasma concentration (Cmin) ([5]; probenecid 1,000 mg b.i.d.): 88 µg/mL | Observed/Predicted Css,ave (PBPK modeling): 1.0

Compound: CCOC(=O)C1=C[C@@H](OC(CC)CC)[C@H](NC(C)=O)[C@@H](N)C1 [oseltamivir]
decrease of clearance by probenecid [6]: 32%

Compound: CC(C)Cc1ccc(C(C)C(=O)O)cc1 (stereo not shown) [Ibuprofen]
plasma bound [1]: […] | fu (fraction unbound in plasma) [1]: 0.018 | tlag [2]: […] | ka (first-order absorption rate constant) ([2]; ref 22 (probenecid), 23 (ibuprofen)): […] | LogP [7]: […] | IC50 (OAT3): […] | AUC observed [6, 8]: 218 (23) ^a μg·h/mL

Compound: NS(=O)(=O)c1cc(C(=O)O)c(NCc2ccco2)cc1Cl [furosemide]
decrease of CLr by probenecid [6]: 66%

Compound: CCc1nc(N)nc(N)c1-c1ccc(Cl)cc1 [Pyrimethamine]
plasma bound [1]: g 25 mg oral dose, 87% plasma bound.32 | IC50 (MATE2-K): 0.25 µM | DDI index ([Iu]/IC50), MATE2-K (MATE2-K): 0.5 | DDI index ([Iu]/IC50), MATE2-K (MATE2-K; listed as pyrimethamine): 0.49 | Cmax unbound inhibitor [Iu] [3]: 100 nM
